Reference: the NIST ThermoML archive (doi:10.1016/j.tca.2015.02.014)

Assay: mn = molality of the nth substance listed, in mol/kg
Details: 100 kPa, Liquid; for viscosity: Capillary tube (Ostwald / Ubbelohde) method; for speed of sound: Frequency=3 MHz, Sing-around technique in a fixed-path interferometer; for mass density: Vibrating tube method

C[C@H](CCC(=O)[O-])[C@H]1CC[C@H]2[C@@H]3CC[C@@H]4C[C@H](O)CC[C@]4(C)[C@H]3C[C@H](O)[C@]12C.[Na+] [sodium deoxycholate] + O
Details	mass density [kg/m3]	speed of sound [m/s]	viscosity [mPa·s]
293.15 K, m1 = 0.001	998.465	1483.4	1.003
293.15 K, m1 = 0.002	998.579	1483.8	1.004
293.15 K, m1 = 0.003	998.669	1484.2	1.006
293.15 K, m1 = 0.004	998.749	1484.5	1.009
293.15 K, m1 = 0.005	998.815	1484.6	1.014
293.15 K, m1 = 0.006	998.905	1485	1.027
293.15 K, m1 = 0.007	998.995	1485.2	1.036
293.15 K, m1 = 0.009	999.185	1485.5	1.045
293.15 K, m1 = 0.011	999.39	1485.8	1.049
293.15 K, m1 = 0.013	999.585	1486.2	1.053
293.15 K, m1 = 0.015	999.795	1486.5	1.062
293.15 K, m1 = 0.017	999.993	1486.8	1.069
298.15 K, m1 = 0.001	997.29	1497.2	0.8914
298.15 K, m1 = 0.002	997.395	1497.5	0.8926
298.15 K, m1 = 0.003	997.475	1497.8	0.8937
298.15 K, m1 = 0.004	997.555	1497.9	0.8967
298.15 K, m1 = 0.005	997.635	1498.1	0.9021
298.15 K, m1 = 0.006	997.715	1498.4	0.915
298.15 K, m1 = 0.007	997.805	1498.7	0.924
298.15 K, m1 = 0.009	997.996	1499.2	0.9323
298.15 K, m1 = 0.011	998.185	1499.5	0.9368
298.15 K, m1 = 0.013	998.388	1499.9	0.941
298.15 K, m1 = 0.015	998.572	1500.2	0.9489
298.15 K, m1 = 0.017	998.772	1500.6	0.956
303.15 K, m1 = 0.001	995.88	1509.6	0.7987
303.15 K, m1 = 0.002	995.983	1509.9	0.7999
303.15 K, m1 = 0.003	996.059	1510	0.801
303.15 K, m1 = 0.004	996.137	1510.2	0.8039
303.15 K, m1 = 0.005	996.215	1510.5	0.8092
303.15 K, m1 = 0.006	996.289	1510.7	0.822
303.15 K, m1 = 0.007	996.377	1511	0.8309
303.15 K, m1 = 0.009	996.557	1511.3	0.8391
303.15 K, m1 = 0.011	996.745	1511.8	0.8434
303.15 K, m1 = 0.013	996.921	1512	0.8476
303.15 K, m1 = 0.015	997.109	1512.3	0.8554
303.15 K, m1 = 0.017	997.29	1512.7	0.8624
308.15 K, m1 = 0.001	994.255	1520.1	0.7203
308.15 K, m1 = 0.002	994.355	1520.5	0.7215
308.15 K, m1 = 0.003	994.435	1520.7	0.7225
308.15 K, m1 = 0.004	994.509	1520.8	0.7254
308.15 K, m1 = 0.005	994.587	1521	0.7307
308.15 K, m1 = 0.006	994.659	1521.3	0.7433
308.15 K, m1 = 0.007	994.739	1521.5	0.752
308.15 K, m1 = 0.009	994.914	1521.9	0.7601
308.15 K, m1 = 0.011	995.094	1522.2	0.7644
308.15 K, m1 = 0.013	995.282	1522.6	0.7685
308.15 K, m1 = 0.015	995.452	1522.8	0.7762
308.15 K, m1 = 0.017	995.616	1523.2	0.7831
313.15 K, m1 = 0.001	992.421	1529.3	0.6543
313.15 K, m1 = 0.002	992.515	1529.5	0.6554
313.15 K, m1 = 0.003	992.6	1529.7	0.6565
313.15 K, m1 = 0.004	992.681	1529.8	0.6593
313.15 K, m1 = 0.005	992.757	1530	0.6645
313.15 K, m1 = 0.006	992.817	1530.3	0.677
313.15 K, m1 = 0.007	992.91	1530.5	0.6857
313.15 K, m1 = 0.009	993.064	1530.9	0.6936
313.15 K, m1 = 0.011	993.239	1531.2	0.6979
313.15 K, m1 = 0.013	993.428	1531.5	0.7019
313.15 K, m1 = 0.015	993.595	1531.8	0.7096
313.15 K, m1 = 0.017	993.737	1532	0.7164
318.15 K, m1 = 0.001	990.405	1536.9	0.5973
318.15 K, m1 = 0.002	990.499	1537.1	0.5984
318.15 K, m1 = 0.003	990.576	1537.3	0.5994
318.15 K, m1 = 0.004	990.651	1537.3	0.6022
318.15 K, m1 = 0.005	990.732	1537.5	0.6074
318.15 K, m1 = 0.006	990.802	1537.7	0.6197
318.15 K, m1 = 0.007	990.892	1537.9	0.6283
318.15 K, m1 = 0.009	991.03	1538.3	0.6361
318.15 K, m1 = 0.011	991.199	1538.6	0.6403
318.15 K, m1 = 0.013	991.379	1538.9	0.6443
318.15 K, m1 = 0.015	991.535	1539.2	0.6518
318.15 K, m1 = 0.017	991.705	1539.5	0.6586
